{"source": "patent US20260041744A1", "about": "“Methods for Treating Pompe Disease” (Amicus Therapeutics, Inc., priority 2022, published 2026)", "key": {"[1]": {"tested_on": "adult subjects with Pompe disease", "experiment": "Pooled Studies ATB200-02/03/07 (Pool 2): 6MWD by exposure interval", "settings": "exposure interval ≤15 months", "description": "(§1) The pooled efficacy analyses presented within this section include the outlier (Pool 2). […] Pooled efficacy analyses excluding the outlier subject (Pool 2A) were also performed.\n(§2) No long-term data for the alglucosidase alfa/placebo group are available, as all subjects switched to cipaglucosidase alfa/miglustat in Study ATB200-07.\n(§3) Efficacy data from the 3 adult Pompe disease clinical studies were pooled and analyzed to further support the long-term efficacy of cipaglucosidase alfa/miglustat in adult subjects. Data from non-ambulatory subjects (Study ATB200-02 Cohort 2) were not included in the pool as there was little overlap of efficacy endpoints for this group with the various ambulatory groups, such as 6MWD and lower MMT.\n(§4) The 3 adult Pompe disease clinical studies were pooled as follows: • The cipaglucosidase alfa/miglustat treatment group consists of: • All ambulatory subjects in Study ATB200-02 (Cohorts 1, 3, and 4), • All subjects randomized to the cipaglucosidase alfa/miglustat treatment group in Study ATB200-03, and • All subjects enrolled in Study ATB200-07. • The alglucosidase alfa/placebo treatment group consists of: • All subjects randomized to the ERT treatment group in Study ATB200-03."}, "[2]": {"tested_on": "adult subjects with late-onset Pompe disease (LOPD)", "experiment": "Study ATB200-03: global test and responder analyses on 6MWD, FVC, MMT", "type": "in vivo, human", "settings": "change from baseline to Week 52", "excerpt": "To support the interpretation of clinical benefit, a composite subject-level response was defined based on the totality of the treatment outcome data. Subjects were classified by an ordinal response variable consisting of significant improvement, moderate improvement, or minor/no improvement based on treatment outcomes.\nThresholds for clinically relevant changes for 6MWD and FVC in Pompe specifically are not well established, however a large body of data exists from other neuromuscular and chronic respiratory diseases, especially interstitial pulmonary fibrosis (IPF). […] Accordingly, these thresholds were applied to analyses of Study ATB200-03 data.\nAdditional post hoc patient-level analyses were conducted using these thresholds for 6MWD (±6%) and FVC (±3%) separately and combined."}, "Gaa KO mice": {"tested_on": "Gaa KO mice", "experiment": "Single fiber analysis (LAMP1/LC3 co-immunofluorescence, white gastrocnemius)", "type": "in vivo, mouse", "settings": "single fibers", "excerpt": "FIG. 17 depicts co-immunofluorescent staining of LAMP1 (green) (see for example, “B”) and LC3 (red) (see, for example, “A”) in single fibers isolated from the white gastrocnemius of Gaa KO mice treated with a vehicle, alglucosidase alfa, or ATB200. “C” depicts clearance of autophagic debris and absence of enlarged lysosome. A minimum of 30 fibers were examined from each animal.\nAs a result, a significant portion of muscle fibers analyzed (36-60%) from ATB200-treated mice appeared normal or near-normal."}, "adult subjects with LOPD [3]": {"tested_on": "adult subjects with LOPD", "experiment": "Study ATB200-07 (OLE): MMT lower extremity", "quoted_text": "(§5) Analysis populations presented in this summary are 1) the OLE-ES Population (all subjects who satisfied the eligibility requirements (based on the inclusion and exclusion criteria) and entered Study ATB200-07 and 2) the OLE-FAS Population (all subjects who entered the OLE Study ATB200-07 who had both a valid ATB200-07 baseline and at least 1 post-baseline assessment for at least 1 of the 6 main efficacy endpoints [6MWD, sitting % predicted FVC, MMT-lower extremities, PROMIS-Physical Function, PROMIS-Fatigue, and GSGC])."}, "[4]": {"tested_on": "adult subjects with late-onset Pompe disease (LOPD)", "experiment": "Study ATB200-03 (PROPEL): PROMIS-Physical Function", "type": "in vivo, human", "settings": "for CHG to Week 52 in PROMIS-Physical Function total score, LS Mean: MMRM, actual time point of assessments; for PROMIS-Physical Function Short Form 20a total score CHG, LS means (SE): Week 52, ANCOVA", "experimental": "The test for the primary endpoint was conducted first at the 1-sided 0.025 significance level, and if significant, the ordered key secondary endpoints were similarly tested at the same significance level. The statistical significance of the key secondary endpoints was interpreted following a hierarchical testing order, each at the 1-sided alpha level of 0.025. […] Primary analyses of efficacy were performed using the mixed-effect model for repeated measures (MMRM) for 6MWD in Intent-to-treat Observed Population (ITT) that includes all available, observed data without any missing data imputation (ITT-OBS) and analysis of covariance (ANCOVA) for all other endpoints in the Intent-to-Treat-Last Observation Carried Forward (ITT-LOCF) Population. A nonparametric randomization based ANCOVA was specified as the first sensitivity analysis for 6MWD and FVC. […] For the purposes of data presentation in this document, 2-sided p-values are reported hereafter, except as otherwise noted."}, "adult subjects with LOPD [5]": {"tested_on": "adult subjects with LOPD", "experiment": "Study ATB200-07 (OLE): PROMIS-Physical Function", "type": "in vivo, human", "quoted_text": "as §5"}, "adult subjects with LOPD [6]": {"tested_on": "adult subjects with LOPD", "experiment": "Study ATB200-07 (OLE of PROPEL): 6MWD and % predicted 6MWD", "type": "in vivo, human", "excerpt": "The study doses and schedule are maintained from Study ATB200-03.\nEfficacy data are presented in this summary as change from the baseline of Study ATB200-03 (OLE-ES Population)."}, "adult subjects with LOPD [7]": {"tested_on": "adult subjects with LOPD", "experiment": "Study ATB200-07 (OLE): PROMIS-Fatigue", "type": "in vivo, human", "quoted_text": "as §5"}, "[8]": {"tested_on": "adult subjects with Pompe disease", "experiment": "Pooled Studies ATB200-02/03/07 (Pool 2): sitting % predicted FVC by exposure interval", "settings": "exposure interval ≤15 months", "description": "as §1, §2, §3, §4"}, "[9]": {"settings": "Pool 2, Efficacy Population including the outlier"}, "[10]": {"settings": "last available post-baseline value − baseline, Pool 2, including the outlier"}, "[11]": {"settings": "Excluding Subject 4005-2511, 2-sided p 0.010"}, "[12]": {"settings": "ITT Population, 2-sided p 0.022"}, "[13]": {"settings": "Study ATB200-03 baseline, OLE-ES Population excluding Subject 4005-2511"}, "[14]": {"settings": "change from ATB200-03 baseline at Week 52, OLE-ES excluding Subject 4005-2511"}, "[15]": {"settings": "change from ATB200-03 baseline at Week 104, alglucosidase alfa/placebo group switched to cipaglucosidase alfa/miglustat at Week 52, OLE-ES excluding Subject 4005-2511"}, "[16]": {"settings": "Week 52-LOCF, ERT-experienced Population"}, "[17]": {"settings": "Week 52-LOCF, ERT-naïve Subjects excluding Subject 4005-2511"}, "[18]": {"settings": "Week 52-LOCF, ITT excluding Subject 4005-2511"}}}
{"substance": "alglucosidase alfa [reference compound]", "values": [{"measurement": "6MWD Baseline, Mean", "setting": "[1]; [9]", "value": 350.14, "unit": "meters"}, {"measurement": "6MWD Baseline, Median", "setting": "[1]; Pool 2, including the outlier", "value": 358.45, "unit": "meters"}, {"measurement": "6MWD change from baseline, median", "setting": "[1]; Pool 2, including the outlier", "value": 3.15, "unit": "meters"}, {"measurement": "6MWD change from baseline, mean", "setting": "[1]; [10]", "value": 16.40, "unit": "meters"}, {"measurement": "Wilcoxon rank sum test on sum of ranks for 6MWD and % predicted FVC: Mean Score", "setting": "[2]; [11]", "value": 48.5}, {"measurement": "Wilcoxon rank sum test on sum of ranks for 6MWD and % predicted FVC: Sum of Scores", "setting": "[2]; [11]", "value": 1793.5}, {"measurement": "Wilcoxon rank sum test on sum of ranks for 6MWD and FVC: Mean Score", "setting": "[2]; [12]", "value": 50.4}, {"measurement": "Wilcoxon rank sum test on sum of ranks for 6MWD and FVC: Sum of Scores", "setting": "[2]; [12]", "value": 1915.5}, {"measurement": "Fibers with Autophagy Buildup", "setting": "Gaa KO mice", "value": ">90", "unit": "%"}, {"measurement": "Fibers with Normal or Near-normal Appearance", "setting": "Gaa KO mice", "value": "<10", "unit": "%"}, {"measurement": "MMT (lower extremity score), mean BSL", "setting": "adult subjects with LOPD [3]; [13]", "value": 27.8}, {"measurement": "MMT (lower extremity score), mean 52-wk CFB", "setting": "adult subjects with LOPD [3]; [14]", "value": 0.9}, {"measurement": "MMT (lower extremity score), mean 104-wk CFB", "setting": "adult subjects with LOPD [3]; [15]", "value": 1.1}, {"measurement": "PROMIS-Physical Function Short Form 20a total score Absolute Value, Median", "setting": "[4]; Baseline, ITT, ERT-naïve Subjects excluding Subject 4005-2511", "value": 67.00}, {"measurement": "PROMIS-Physical Function Short Form 20a total score Absolute Value, Mean", "setting": "[4]; Baseline, ITT, ERT-naïve Subjects excluding Subject 4005-2511, score 20 to 100, higher = less impact", "value": 72.71}, {"measurement": "mean (SD) change in PROMIS-Physical Function total score from baseline to Week 52", "setting": "[4]; ERT-experienced Population", "value": "1.0 (11.20)"}, {"measurement": "mean (SD) change in PROMIS-Physical Function total score from baseline to Week 52", "setting": "[4]; ERT-naïve excluding Subject 4005-2511", "value": "5.1 (7.82)"}, {"measurement": "Change in PROMIS-Physical Function total score baseline to Week 52, LS means (SE) from ANCOVA", "setting": "[4]; ITT-LOCF, ERT-naïve Subjects excluding Subject 4005-2511", "value": "6.96 (3.539)"}, {"measurement": "CHG to Week 52 in PROMIS-Physical Function total score, LS Mean", "setting": "[4]; ITT-OBS excluding Subject 4005-2511 (overall)", "value": "−0.3"}, {"measurement": "CHG to Week 52 in PROMIS-Physical Function total score, LS Mean", "setting": "[4]; ITT-OBS excluding Subject 4005-2511, ERT-naïve Subjects", "value": 5.8}, {"measurement": "CHG to Week 52 in PROMIS-Physical Function total score, LS Mean", "setting": "[4]; ITT-OBS, ERT-experienced Subjects", "value": "−1.6"}, {"measurement": "PROMIS-Physical Function Short Form 20a total score Absolute Value, Mean (SD)", "setting": "[4]; [16]", "value": "65.90 (15.790)"}, {"measurement": "PROMIS-Physical Function Short Form 20a total score Absolute Value, Median", "setting": "[4]; [16]", "value": 66.00}, {"measurement": "PROMIS-Physical Function Short Form 20a total score CHG, Mean (SD)", "setting": "[4]; [16]", "value": "−0.97 (11.196)"}, {"measurement": "PROMIS-Physical Function Short Form 20a total score CHG, Median", "setting": "[4]; [16]", "value": "−2.00"}, {"measurement": "PROMIS-Physical Function Short Form 20a total score Absolute Value, Mean", "setting": "[4]; [17]", "value": 77.86}, {"measurement": "PROMIS-Physical Function Short Form 20a total score Absolute Value, Median", "setting": "[4]; [17]", "value": 80.00}, {"measurement": "PROMIS-Physical Function Short Form 20a total score CHG (change from baseline), Mean", "setting": "[4]; [17]", "value": 5.14}, {"measurement": "PROMIS-Physical Function Short Form 20a total score CHG (change from baseline), Median", "setting": "[4]; [17]", "value": 5.00}, {"measurement": "PROMIS-Physical Function Short Form 20a total score Absolute Value, Mean (SD)", "setting": "[4]; [18]", "value": "68.16 (16.269)"}, {"measurement": "PROMIS-Physical Function Short Form 20a total score Absolute Value, Median", "setting": "[4]; [18]", "value": 69.00}, {"measurement": "PROMIS-Physical Function Short Form 20a total score CHG, Mean (SD)", "setting": "[4]; [18]", "value": "0.19 (10.819)"}, {"measurement": "PROMIS-Physical Function Short Form 20a total score CHG, Median", "setting": "[4]; [18]", "value": "−1.00"}, {"measurement": "PROMIS-Physical Function Short Form 20a total score CHG, LS means (SE)", "setting": "[4]; ITT-LOCF excluding Subject 4005-2511", "value": "0.11 (1.406)"}, {"measurement": "PROMIS-Physical Function Short Form 20a total score CHG, LS means (SE)", "setting": "[4]; ITT-LOCF, ERT-experienced Population", "value": "−1.25 (1.587)"}, {"measurement": "mean (SD) change in PROMIS-Physical Function total score from baseline to Week 52", "setting": "[4]; overall population", "value": "0.2 (10.82)"}, {"measurement": "PROMIS-Physical Function, mean BSL", "setting": "adult subjects with LOPD [5]; [13]", "value": 67.9}, {"measurement": "PROMIS-Physical Function, mean 52-wk CFB", "setting": "adult subjects with LOPD [5]; [14]", "value": 0.3}, {"measurement": "PROMIS-Physical Function, mean 104-wk CFB", "setting": "adult subjects with LOPD [5]; [15]", "value": "−0.4"}, {"measurement": "6MWD, mean BSL", "setting": "adult subjects with LOPD [6]; [13]", "value": 351.7, "unit": "m"}, {"measurement": "6MWD, mean 52-wk CFB", "setting": "adult subjects with LOPD [6]; change from ATB200-03 baseline at Week 52 (= ATB200-07 baseline), OLE-ES excluding Subject 4005-2511", "value": 8.0, "unit": "m"}, {"measurement": "6MWD, mean 104-wk CFB", "setting": "adult subjects with LOPD [6]; [15]", "value": 3.3, "unit": "m"}, {"measurement": "PROMIS-Fatigue, mean BSL", "setting": "adult subjects with LOPD [7]; [13]", "value": 21.2}, {"measurement": "PROMIS-Fatigue, mean 52-wk CFB", "setting": "adult subjects with LOPD [7]; change from ATB200-03 baseline at Week 52, decrease indicates improvement, OLE-ES excluding Subject 4005-2511", "value": "−1.7"}, {"measurement": "PROMIS-Fatigue, mean 104-wk CFB", "setting": "adult subjects with LOPD [7]; [15]", "value": "−0.1"}, {"measurement": "Sitting % Predicted FVC Baseline, Mean", "setting": "[8]; [9]", "value": 70.04, "unit": "% predicted"}, {"measurement": "Sitting % Predicted FVC Baseline, Median", "setting": "[8]; Pool 2, including the outlier", "value": 71.25, "unit": "% predicted"}, {"measurement": "sitting % predicted FVC change from baseline, median", "setting": "[8]; Pool 2, including the outlier", "value": "−3.00", "unit": "% predicted"}, {"measurement": "sitting % predicted FVC change from baseline, mean", "setting": "[8]; [10]", "value": "−3.64", "unit": "% predicted"}]}
